The target in one assay is Rho kinase 1 (Homo sapiens, UniProt Q13464). The assay is described as follows: In vitro Rho kinase inhibitory activity assay (ADP-Glo kit, Myelin Basic Protein substrate). It counts as biochemical. To be noted: 10 μM ATP, 25° C., read-out: ROCK1 inhibitory activity (Ki, range of activity). The gist of the method: (§1)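 Human ROCK1 or ROCK2 was preincubated with compound for 30 min at 25 °C in 40 mM Tris pH7.5, 20 mM MgCl2, 0.1 mg/ml BSA, 50 μM DTT, 2.5 μM Myelin Basic Protein, 1% DMSO final. Reactions ran 1 hour with 10 μM ATP final; ADP-Glo luminescence gave IC50 by sigmoidal fit, Ki by Cheng-Prusoff.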
Chain of Rho kinase 1 (Q13464 whole entry): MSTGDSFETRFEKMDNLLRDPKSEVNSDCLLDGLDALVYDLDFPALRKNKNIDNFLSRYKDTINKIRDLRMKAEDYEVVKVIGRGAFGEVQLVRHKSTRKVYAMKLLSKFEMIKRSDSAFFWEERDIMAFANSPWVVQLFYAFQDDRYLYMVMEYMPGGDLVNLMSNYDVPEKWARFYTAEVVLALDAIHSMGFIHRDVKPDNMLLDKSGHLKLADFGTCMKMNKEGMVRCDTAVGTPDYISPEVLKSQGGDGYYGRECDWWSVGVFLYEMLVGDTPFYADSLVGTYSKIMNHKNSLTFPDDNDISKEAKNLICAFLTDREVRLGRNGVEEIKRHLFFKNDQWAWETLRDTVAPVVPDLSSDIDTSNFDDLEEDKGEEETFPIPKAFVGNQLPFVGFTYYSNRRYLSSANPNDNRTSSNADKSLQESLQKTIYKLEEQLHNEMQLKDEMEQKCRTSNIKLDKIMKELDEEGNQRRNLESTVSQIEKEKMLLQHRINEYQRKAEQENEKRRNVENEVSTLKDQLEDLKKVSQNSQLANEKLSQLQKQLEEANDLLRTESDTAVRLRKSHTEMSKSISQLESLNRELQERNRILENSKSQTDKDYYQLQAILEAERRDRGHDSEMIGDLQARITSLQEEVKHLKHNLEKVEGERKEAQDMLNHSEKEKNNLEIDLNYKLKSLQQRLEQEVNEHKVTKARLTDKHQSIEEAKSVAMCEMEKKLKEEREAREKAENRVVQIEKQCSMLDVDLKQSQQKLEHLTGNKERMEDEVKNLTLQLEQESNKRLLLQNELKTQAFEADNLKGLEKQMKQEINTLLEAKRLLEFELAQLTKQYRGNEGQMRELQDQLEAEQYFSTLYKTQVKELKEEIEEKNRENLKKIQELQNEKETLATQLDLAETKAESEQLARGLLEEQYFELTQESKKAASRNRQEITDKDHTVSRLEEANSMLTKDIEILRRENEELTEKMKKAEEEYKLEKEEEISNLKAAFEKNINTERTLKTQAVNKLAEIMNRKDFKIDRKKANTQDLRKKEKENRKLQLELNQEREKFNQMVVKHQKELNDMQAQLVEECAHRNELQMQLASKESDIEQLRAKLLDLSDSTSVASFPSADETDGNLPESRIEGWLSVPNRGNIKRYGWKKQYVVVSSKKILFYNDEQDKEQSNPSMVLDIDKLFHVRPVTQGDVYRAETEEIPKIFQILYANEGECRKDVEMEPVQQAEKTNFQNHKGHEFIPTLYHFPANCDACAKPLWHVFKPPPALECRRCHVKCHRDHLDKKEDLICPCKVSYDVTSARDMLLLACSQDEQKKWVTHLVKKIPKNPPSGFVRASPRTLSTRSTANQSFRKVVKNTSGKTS
For orientation: ADP-Glo turns the ADP formed in a reaction into a luminescent signal.

Another assay deals with Rho kinase 2 (Homo sapiens, UniProt O75116). Described as above. Type of assay: biochemical. The conditions noted are these: 10 μM ATP, 25° C., read-out: ROCK2 inhibitory activity (Ki, range of activity). The gist of the method:
as §1

Structures are written as SMILES.

Chain of Rho kinase 2 (O75116 whole entry): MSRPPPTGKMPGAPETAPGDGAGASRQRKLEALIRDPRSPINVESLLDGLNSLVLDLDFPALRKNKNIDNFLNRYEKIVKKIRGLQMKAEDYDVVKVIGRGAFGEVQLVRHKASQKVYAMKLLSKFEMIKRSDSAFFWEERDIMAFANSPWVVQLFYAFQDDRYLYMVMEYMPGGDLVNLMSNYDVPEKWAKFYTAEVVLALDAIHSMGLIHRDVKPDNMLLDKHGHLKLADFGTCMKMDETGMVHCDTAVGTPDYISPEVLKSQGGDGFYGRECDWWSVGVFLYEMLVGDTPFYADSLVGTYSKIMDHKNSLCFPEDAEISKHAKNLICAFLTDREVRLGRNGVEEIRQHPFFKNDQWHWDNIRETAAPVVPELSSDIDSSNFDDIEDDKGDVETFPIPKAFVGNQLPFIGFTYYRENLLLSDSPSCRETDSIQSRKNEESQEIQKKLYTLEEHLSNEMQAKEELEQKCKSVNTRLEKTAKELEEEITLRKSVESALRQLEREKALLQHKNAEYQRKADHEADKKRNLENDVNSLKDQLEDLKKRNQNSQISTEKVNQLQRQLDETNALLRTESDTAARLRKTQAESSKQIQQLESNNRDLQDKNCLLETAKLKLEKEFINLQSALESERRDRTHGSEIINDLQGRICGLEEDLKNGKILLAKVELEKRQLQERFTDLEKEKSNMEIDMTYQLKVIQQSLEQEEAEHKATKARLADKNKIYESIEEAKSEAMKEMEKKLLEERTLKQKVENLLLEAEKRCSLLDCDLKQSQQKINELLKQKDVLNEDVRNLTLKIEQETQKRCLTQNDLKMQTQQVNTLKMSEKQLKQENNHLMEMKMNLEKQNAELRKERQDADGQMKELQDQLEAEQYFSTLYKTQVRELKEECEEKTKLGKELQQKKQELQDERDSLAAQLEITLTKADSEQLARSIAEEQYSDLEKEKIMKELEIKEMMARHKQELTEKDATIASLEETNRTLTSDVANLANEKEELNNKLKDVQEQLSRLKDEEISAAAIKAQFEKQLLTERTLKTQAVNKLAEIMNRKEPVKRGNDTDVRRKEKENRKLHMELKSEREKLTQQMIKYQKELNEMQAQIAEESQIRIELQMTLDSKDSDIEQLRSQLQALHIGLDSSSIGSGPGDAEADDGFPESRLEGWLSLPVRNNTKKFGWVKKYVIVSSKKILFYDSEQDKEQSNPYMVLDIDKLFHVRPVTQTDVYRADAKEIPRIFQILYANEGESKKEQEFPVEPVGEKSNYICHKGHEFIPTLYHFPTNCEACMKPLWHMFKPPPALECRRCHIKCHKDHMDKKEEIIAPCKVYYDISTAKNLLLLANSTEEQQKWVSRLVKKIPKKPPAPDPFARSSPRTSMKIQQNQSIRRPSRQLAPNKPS

As for `CC1=C(C(=O)Nc2ccc3[nH]ncc3c2)C(c2ccc(F)cc2)n2nc(C(C)(C)C)cc2N1` (stereo not drawn) [Example 29, 2-(tert-butyl)-7-(4-fluorophenyl)-N-(1H-indazol-5-yl)-5-methyl-4,7-dihydropyrazolo[1,5-a]pyrimidine-6-carboxamide], the inhibition constant (Ki) at Rho kinase 1 and at Rho kinase 2 was < 50 nM in each case.

In the case of `CC1=C(C(=O)Nc2ccc3cnccc3c2)C(c2ccc(C(F)(F)F)c(F)c2)n2nc(NC(=O)CN3CCCC3)cc2N1` (stereo not drawn) [Example 132, 7-(3-fluoro-4-(trifluoromethyl)phenyl)-N-(isoquinolin-6-yl)-5-methyl-2-(2-(pyrrolidin-1-yl)acetamido)-4,7-dihydropyrazolo[1,5-a]pyrimidine-6-carboxamide], the Ki at Rho kinase 1 and at Rho kinase 2 was < 50 nM each time.

With `CC1=C(C(=O)Nc2ccc3[nH]ncc3c2)C(c2ccc(F)cc2)n2ncc(C(N)=O)c2N1` (stereo not drawn) [Example 19, 7-(4-fluorophenyl)-N6-(1H-indazol-5-yl)-5-methyl-4,7-dihydropyrazolo[1,5-a]pyrimidine-3,6-dicarboxamide], the Ki on Rho kinase 1 and on Rho kinase 2 was 50 to 500 nM in each case.

Turning to `CC1=C(C(=O)Nc2ccc3cnccc3c2)C(c2ccc(C(F)(F)F)c(F)c2)n2nc(CN3CC(CN(C)C)C3)cc2N1` (stereo not drawn) [Example 106, 2-((3-((dimethylamino)methyl)azetidin-1-yl)methyl)-7-(3-fluoro-4-(trifluoromethyl)phenyl)-N-(isoquinolin-6-yl)-5-methyl-4,7-dihydropyrazolo[1,5-a]pyrimidine-6-carboxamide], the Ki at Rho kinase 1 and at Rho kinase 2 was < 50 nM each time.

Turning to `CC1=C(C(=O)Nc2ccc3cnccc3c2)C(c2ccc(C(F)(F)F)c(F)c2)n2nc(CN3CCS(=O)(=O)CC3)cc2N1` (stereo not drawn) [Example 108, 2-((1,1-Dioxidothiomorpholino)methyl)-7-(3-fluoro-4-(trifluoromethyl)phenyl)-N-(isoquinolin-6-yl)-5-methyl-4,7-dihydropyrazolo[1,5-a]pyrimidine-6-carboxamide], the inhibition constant (Ki) at Rho kinase 1 and at Rho kinase 2 was < 50 nM in each case.

With `CC1=C(C(=O)Nc2ccc3cnccc3c2)C(c2ccc(C(F)(F)F)cc2)n2nc(CO)cc2N1` (single isomer, unassigned) [Example 43A, 2-(hydroxymethyl)-N-(isoquinolin-6-yl)-5-methyl-7-(4-(trifluoromethyl)phenyl)-4,7-dihydropyrazolo[1,5-a]pyrimidine-6-carboxamide], the inhibitory constant (Ki) (as a rule, a dissociation constant, usually derived from enzyme kinetics or from competition with a known ligand) at Rho kinase 1 was > 500 nM; at Rho kinase 2, 50 to 500 nM.

As to `CC1=C(C(=O)Nc2ccc3[nH]ncc3c2)C(c2ccc(F)cc2)n2ncc(C#N)c2N1` (stereo not drawn) [Example 18, 3-cyano-7-(4-fluorophenyl)-N-(1H-indazol-5-yl)-5-methyl-4,7-dihydropyrazolo[1,5-a]pyrimidine-6-carboxamide], the Ki at Rho kinase 1 and on Rho kinase 2 was < 50 nM each time.

With `CCOC(=O)c1cc2n(n1)C(c1cccc(OC)c1)C(C(=O)Nc1ccc3[nH]ncc3c1)=C(C)N2` (stereo not drawn) [Example 6, ethyl 6-((1H-indazol-5-yl)carbamoyl)-7-(3-methoxyphenyl)-5-methyl-4,7-dihydropyrazolo[1,5-a]pyrimidine-2-carboxylate], the Ki at Rho kinase 1 and at Rho kinase 2 was 50 to 500 nM throughout.

Regarding `CC1=C(C(=O)Nc2ccc3cnccc3c2)C(c2ccc3cc[nH]c3c2)n2nc(CO)cc2N1` (stereo not drawn) [Example 63, 2-(hydroxymethyl)-7-(1H-indol-6-yl)-N-(isoquinolin-6-yl)-5-methyl-4,7-dihydropyrazolo[1,5-a]pyrimidine-6-carboxamide], the Ki on Rho kinase 1 and at Rho kinase 2 was < 50 nM in each case.

As for `CC1=C(C(=O)Nc2ccc3cnccc3c2)C(c2ccc(C)c(F)c2F)n2nc(CN(C)C)cc2N1` (stereo not drawn) [Example 121, 7-(2,3-difluoro-4-methylphenyl)-2-((dimethylamino)methyl)-N-(isoquinolin-6-yl)-5-methyl-4,7-dihydropyrazolo[1,5-a]pyrimidine-6-carboxamide], the Ki on Rho kinase 1 and on Rho kinase 2 was < 50 nM each time.

For `CC1=C(C(=O)Nc2ccc3[nH]ncc3c2)C(c2ccc(F)cc2)n2nnnc2N1` (single isomer, unassigned) [Example 23B, 7-(4-fluorophenyl)-N-(1H-indazol-5-yl)-5-methyl-4,7-dihydrotetrazolo[1,5-a]pyrimidine-6-carboxamide], the inhibition constant Ki at Rho kinase 1 and at Rho kinase 2 was 50 to 500 nM in each case.

Regarding `CC1=C(C(=O)Nc2ccc3[nH]ncc3c2)C(c2ccc(C(F)(F)F)cc2)n2nc(CO)cc2N1` (single isomer, unassigned) [Example 69A, 2-(hydroxymethyl)-N-(1H-indazol-5-yl)-5-methyl-7-(4-(trifluoromethyl)phenyl)-4,7-dihydropyrazolo[1,5-a]pyrimidine-6-carboxamide], the Ki at Rho kinase 1 and at Rho kinase 2 was 50 to 500 nM in each case.

For `CC1=C(C(=O)Nc2ccc3cnccc3c2)C(c2ccc(C(F)(F)F)c(F)c2F)n2nc(CN(C)C)cc2N1` (single isomer, unassigned) [Example 122b, 7-(2,3-difluoro-4-(trifluoromethyl)phenyl)-2-((dimethylamino)methyl)-N-(isoquinolin-6-yl)-5-methyl-4,7-dihydropyrazolo[1,5-a]pyrimidine-6-carboxamide], the inhibitory constant (Ki) on Rho kinase 1 and at Rho kinase 2 was < 50 nM throughout.

In the case of `CC1=C(C(=O)Nc2ccc3cnccc3c2)C(c2ccc(Cl)c(C(F)(F)F)c2)n2nc(CO)cc2N1` (stereo not drawn) [Example 47, 7-(4-chloro-3-(trifluoromethyl)phenyl)-2-(hydroxymethyl)-N-(isoquinolin-6-yl)-5-methyl-4,7-dihydropyrazolo[1,5-a]pyrimidine-6-carboxamide], the inhibition constant (Ki) on Rho kinase 1 and at Rho kinase 2 was < 50 nM throughout.

For `CC1=C(C(=O)Nc2ccc3cnccc3c2)C(c2ccc(C(F)(F)F)c(F)c2)n2nc(NC(=O)CCN3CCCCC3)cc2N1` (single isomer, unassigned) [131A], the inhibitory constant (Ki) on Rho kinase 1 and on Rho kinase 2 was < 50 nM in each case.

Regarding `CC1=C(C(=O)Nc2ccc3cnccc3c2)C(C2COc3ccccc3O2)n2nc(CO)cc2N1` (single isomer, unassigned) [Example 72B, 7-(2,3-dihydrobenzo[b][1,4]dioxin-2-yl)-2-(hydroxymethyl)-N-(isoquinolin-6-yl)-5-methyl-4,7-dihydropyrazolo[1,5-a]pyrimidine-6-carboxamide], the inhibition constant (Ki) at Rho kinase 1 and at Rho kinase 2 was < 50 nM each time.

Consider `CC1=C(C(=O)Nc2ccc3cnccc3c2)C(c2ccc(C(F)(F)F)c(F)c2)n2nc(C(=O)N(C)CCN(C)C)cc2N1` (stereo not drawn) [Example 80, N2-(2-(dimethylamino)ethyl)-7-(3-fluoro-4-(trifluoromethyl)phenyl)-N6-(isoquinolin-6-yl)-N2,5-dimethyl-4,7-dihydropyrazolo[1,5-a]pyrimidine-2,6-dicarboxamide], for which the Ki on Rho kinase 1 and on Rho kinase 2 was < 50 nM throughout.

Take `CC(=O)N1CCN(Cc2cc3n(n2)C(c2ccc(C(F)(F)F)c(F)c2)C(C(=O)Nc2ccc4cnccc4c2)=C(C)N3)CC1` (stereo not drawn) [Example 109, 2-((4-acetylpiperazin-1-yl)methyl)-7-(3-fluoro-4-(trifluoromethyl)phenyl)-N-(isoquinolin-6-yl)-5-methyl-4,7-dihydropyrazolo[1,5-a]pyrimidine-6-carboxamide]: the Ki on Rho kinase 1 and at Rho kinase 2 was < 50 nM throughout.

Consider `CC1=C(C(=O)Nc2ccc3cnccc3c2)C(c2ccc(C(F)(F)F)c(F)c2)n2nc(C3COC3)cc2N1` (stereo not drawn) [Example 116, 7-(3-fluoro-4-(trifluoromethyl)phenyl)-N-(isoquinolin-6-yl)-5-methyl-2-(oxetan-3-yl)-4,7-dihydropyrazolo[1,5-a]pyrimidine-6-carboxamide], for which the inhibition constant Ki on Rho kinase 1 and on Rho kinase 2 was < 50 nM in each case.

For the compound `CCOC(=O)c1cc2n(n1)C(c1ccc(O)cc1)C(C(=O)Nc1ccc3cnccc3c1)=C(C)N2` (stereo not drawn) [Example 9, ethyl 7-(4-hydroxyphenyl)-6-(isoquinolin-6-ylcarbamoyl)-5-methyl-4,7-dihydropyrazolo[1,5-a]pyrimidine-2-carboxylate], the Ki on Rho kinase 1 and at Rho kinase 2 was < 50 nM each time.

Regarding `CC1=C(C(=O)Nc2ccc3cnccc3c2)C(c2ccc(C(F)(F)F)c(F)c2)n2nc(CN(C)C)cc2N1` (single isomer, unassigned) [Example 94A, 2-((dimethylamino)methyl)-7-(3-fluoro-4-(trifluoromethyl)phenyl)-N-(isoquinolin-6-yl)-5-methyl-4,7-dihydropyrazolo[1,5-a]pyrimidine-6-carboxamide], the Ki on Rho kinase 1 and at Rho kinase 2 was 50 to 500 nM throughout.

With `COCc1cc2n(n1)C(c1ccc(C(F)(F)F)c(F)c1)C(C(=O)Nc1ccc3cnccc3c1)=C(C)N2` (stereo not drawn) [Example 36, 7-(3-fluoro-4-(trifluoromethyl)phenyl)-N-(isoquinolin-6-yl)-2-(methoxymethyl)-5-methyl-4,7-dihydropyrazolo[1,5-a]pyrimidine-6-carboxamide], the Ki at Rho kinase 1 and at Rho kinase 2 was < 50 nM throughout.

For the compound `CC1=C(C(=O)Nc2ccc3cnccc3c2)C(c2ccc(C(F)(F)F)c(F)c2)n2nc(CN(C)CC3CCN(C)CC3)cc2N1` (single isomer, unassigned) [Example 104A, 7-(3-fluoro-4-(trifluoromethyl)phenyl)-N-(isoquinolin-6-yl)-5-methyl-2-((methyl((1-methylpiperidin-4-yl)methyl)amino)methyl)-4,7-dihydropyrazolo[1,5-a]pyrimidine-6-carboxamide], the inhibition constant Ki at Rho kinase 1 and on Rho kinase 2 was < 50 nM in each case.

For `CC1=C(C(=O)Nc2ccc3[nH]ncc3c2)C(c2ccc(C(F)(F)F)cc2)n2nc(CN3CCOCC3)cc2N1` (stereo not drawn) [Example 107, N-(1H-indazol-5-yl)-5-methyl-2-(morpholinomethyl)-7-(4-(trifluoromethyl)phenyl)-4,7-dihydropyrazolo[1,5-a]pyrimidine-6-carboxamide], the inhibition constant Ki at Rho kinase 1 and on Rho kinase 2 was < 50 nM each time.

The record behind these values is patent publication US10584128B2, “Bicyclic dihydropyrimidine-carboxamide derivatives as Rho-Kinase inhibitors” (CHIESI FARMACEUTICI S.p.A., priority 2016, dated 2020).
